Legend:
[1] = test system: Monoclonal antibody (mAb); test: Binding affinity against murine monoclonal antibody (mAb)-40-50
[2] = test system: Monoclonal antibody (mAb); test: Binding affinity against human monoclonal antibody (mAb)-11E6
[3] = test system: Monoclonal antibody (mAb); test: Binding affinity against human monoclonal antibody (mAb)-1B3
[4] = test system: Monoclonal antibody (mAb); test: Binding affinity against human monoclonal antibody (mAb)-5C2
[5] = test system: Monoclonal antibody (mAb); test: Binding affinity against human monoclonal antibody (mAb)-7F2
[6] = biological target: Monoclonal antibody (mAb); test: Kinetic parameter against Monoclonal antibody mAB-1B3
[7] = biological target: Monoclonal antibody (mAb); test: Binding affinity against Monoclonal antibody mAB-1B3 using [3H]digitoxin as radioligand
[8] = biological target: Monoclonal antibody (mAb); test: Binding affinity against Monoclonal antibody mAB-1B3 using [3H]digoxin as radioligand

Compound | Relative Ki [1] | IC50 ratio [2] | IC50 ratio [3] | IC50 ratio [4] | IC50 ratio [5] | Kd [6] [nM] | Ki [7] [nM] | Ki [8] [nM]
C[C@H]1O[C@@H](O[C@H]2[C@@H](O)C[C@H](O[C@H]3[C@@H](O)C[C@H](O[C@H]4CC[C@@]5(C)[C@H](CC[C@@H]6[C@@H]5C[C@@H](O)[C@]5(C)[C@@H](C7=CC(=O)OC7)CC[C@]65O)C4)O[C@@H]3C)O[C@@H]2C)C[C@H](O)[C@@H]1O [DIGOXIN] | 1 | 1 | 1 | 1 | 1 | 3.1 | 0.8 | 1.2
CC(=O)O[C@H]1CC[C@@]2(C)[C@H](CC[C@@H]3[C@@H]2C[C@@H](O)[C@]2(C)[C@@H](C4=CC(=O)OC4)CC[C@]32O)C1 | 0.7 | 96 | 70 | 140 | 110 | – | – | –
C[C@H]1O[C@@H](O[C@H]2CC[C@@]3(C)[C@H](CC[C@@H]4[C@@H]3C[C@@H](O)[C@]3(C)[C@@H](C5=CC(=O)OC5)CC[C@]43O)C2)C[C@H](O)[C@@H]1O | 0.6 | 0.9 | 5.9 | 1.3 | 1 | – | – | –
C[C@]12C[C@@H](O)[C@H]3[C@@H](CC[C@]4(O)C[C@@H](O)C[C@@H](O)[C@]34CO)[C@@]1(O)CC[C@@H]2C1=CC(=O)OC1 | 9 | 6600 | 52000 | No inhibition | 13000 | – | – | –
C[C@]12CC[C@H](O)C[C@H]1CC[C@@H]1[C@@H]2CC[C@]2(C)[C@@H](C3=CC(=O)OC3)[C@@H](O)C[C@]12O | 93 | 2100 | 4700 | 2700 | 2000 | – | – | –
CC(=O)O[C@H]1CC[C@]2(C=O)[C@H]3CC[C@]4(C)[C@@H](C5=CC(=O)OC5)CC[C@]4(O)[C@@H]3CC[C@]2(O)C1 | 10 | 18 | 600 | 44 | 17 | – | – | –
C[C@@H]1O[C@H](O[C@H]2CC[C@@]3(C)[C@H](CC[C@@H]4[C@@H]3CC[C@]3(C)[C@@H](C5=CC(=O)OC5)CC[C@]43O)C2)[C@@H](O)[C@@H](O)[C@@H]1O | 0.6 | 29 | 40 | 21 | 22 | – | – | –
C[C@]12CC[C@H]3[C@@H](CC[C@]4(O)C[C@@H](O)CC[C@]34C=O)[C@@]1(O)CC[C@@H]2C1=CC(=O)OC1 | 4 | 66 | 3000 | 470 | 84 | – | – | –
C[C@H]1O[C@@H](O[C@H]2[C@@H](O)C[C@H](O[C@H]3[C@@H](O)C[C@H](O[C@H]4CC[C@@]5(C)[C@H](CC[C@@H]6[C@@H]5CC[C@]5(C)[C@@H](C7=CC(=O)OC7)[C@@H](O)C[C@]65O)C4)O[C@@H]3C)O[C@@H]2C)C[C@H](O)[C@@H]1O | 16 | 73 | 11 | 130 | 81 | – | – | –
CO[C@H]1C[C@H](O[C@H]2CC[C@@]3(C)[C@H](CC[C@@H]4[C@@H]3CC[C@]3(C)[C@@H](C5=CC(=O)OC5)[C@@H](OC(C)=O)C[C@]43O)C2)O[C@@H](C)[C@@H]1O | 200 | 3100 | 180 | No inhibition | 3200 | – | – | –
CC(=O)O[C@H]1C[C@]2(O)[C@@H]3CC[C@@H]4C[C@@H](O[C@@H]5C[C@H](O)[C@H](O[C@H]6C[C@H](O)[C@H](O[C@H]7C[C@H](O)[C@H](O)[C@@H](C)O7)[C@@H](C)O6)[C@@H](C)O5)CC[C@]4(C)[C@H]3CC[C@]2(C)[C@H]1C1=CC(=O)OC1 | 58 | 400 | 49 | 290 | 330 | – | – | –
C[C@@H]1O[C@@H](O[C@H]2C[C@@H](O)[C@]3(CO)[C@H]4[C@H](O)C[C@]5(C)[C@@H](C6=CC(=O)OC6)CC[C@]5(O)[C@@H]4CC[C@]3(O)C2)[C@H](O)[C@H](O)[C@H]1O | 7 | 38000 | 4100 | No inhibition | 39000 | – | – | –
C[C@]12CC[C@H](O)C[C@H]1CC[C@@H]1[C@@H]2CC[C@]2(C)[C@@H](C3=CC(=O)OC3)CC[C@]12O [DIGITOXIGENIN] | 2 | 14 | 1800 | 14 | 16 | – | 880 | 1000
CO[C@H]1[C@H](O)[C@H](O[C@H]2CC[C@@]3(C)[C@H](CC[C@@H]4[C@@H]3CC[C@]3(C)[C@@H](C5=CC(=O)OC5)CC[C@]43O)C2)O[C@@H](C)[C@@H]1O | 1 | 17 | 69 | 21 | 9.5 | – | – | –
CC(=O)[C@H]1CC[C@H]2[C@@H]3CCC4=CC(=O)CC[C@]4(C)[C@H]3CC[C@]12C [PROGESTERONE] | – | 100 | 36000 | 55 | 69 | – | – | 36000
C[C@]12CC[C@H](O)C[C@H]1CC[C@@H]1[C@@H]2C[C@@H](O)[C@]2(C)[C@@H](C3=CC(=O)OC3)CC[C@]12O [DIGOXIGENIN] | 2 | 6.2 | 2700 | 2.9 | 4.6 | – | 1700 | 3100
C[C@H]1O[C@@H](O[C@H]2[C@@H](O)C[C@H](O[C@H]3[C@@H](O)C[C@H](O[C@H]4CC[C@@]5(C)[C@H](CC[C@@H]6[C@@H]5CC[C@]5(C)[C@@H](C7=CC(=O)OC7)CC[C@]65O)C4)O[C@@H]3C)O[C@@H]2C)C[C@H](O)[C@@H]1O [DIGITOXIN] | 1 | 1.7 | 0.3 | 10 | 8 | 0.6 | 0.2 | 0.1
